These results are taken from patent US8865731B2, “Inhibitor of analgesic tolerance” (Kyowa Hakko Kirin Co., Ltd., priority 2008, dated 2014).

In series [1] the test system is Male ddY mice. As to the kind of experiment: Suppressing activity on morphine analgesic tolerance (hot plate method, response latency). The series is classed as in vivo. Particulars: for ΔChange (Latency at each time point − Pre value) 0.5 h / ΔChange (Latency at each time point − Pre value) 1 h / ΔChange (Latency at each time point − Pre value) 2 h: Table 3; for ΔChange (Latency at each time point − Pre value) 0.5 h: day 7, 0.5 h; for ΔChange (Latency at each time point − Pre value) 1 h: day 7, 1 h; for ΔChange (Latency at each time point − Pre value) 2 h: day 7, 2 h; for development of analgesic tolerance (response latency) / effect on the response latency: Test Example 4; for development of analgesic tolerance (response latency): compound 10 mg/kg p.o. 30 min before each morphine 6 mg/kg s.c. Here is the method:
(§1) Food and water were provided ad libitum.
(§2) Morphine was dissolved in physiological saline at a concentration of 0.6 mg/mL and subcutaneously administered at a dose of 6 mg/kg.
as §1, §2
The effect of Compounds (IC) and (ID) on morphine analgesic tolerance was studied. The experiment was performed in the same manner as in Test Example 3. Compounds (IC) and (ID) were used at a dose of 10 mg/kg, respectively.

In series [2] the test system is Male ddY mice. The series is described as follows: Suppressing activity on oxycodone analgesic tolerance (hot plate method, response latency). The following applies: for Latency (sec) Pre value (before drug administration on last day) / ΔChange (Latency at each time point − Pre value) 0.5 h / ΔChange (Latency at each time point − Pre value) 1 h / ΔChange (Latency at each time point − Pre value) 2 h: Table 6.

For series [3], the system named is Male ddY mice. As to the kind of experiment: Suppressing activity on morphine-induced constipation (number of fecal pellets). The series is classed as in vivo. The following applies: for number of fecal pellets: FIG. 2. Here is the method: Food and water were provided ad libitum. At the time of collection of fecal pellets, food and water were not provided.
Morphine was dissolved in physiological saline at a concentration of 0.3 mg/mL and subcutaneously administered at a dose of 3 mg/kg.
On the day of the test, the tails of the mice were numbered for identification, and the body weight of each mouse was measured. On the basis of the measured body weight, 0.5% MC or Compound (IA) was orally administered. At 30 minutes after administration of 0.5% MC or Compound (IA), physiological saline or morphine was subcutaneously administered, and collection of fecal pellets was started. The fecal pellets were collected at 3 hours after administration of morphine. The amount of feces was evaluated by counting the number of the fecal pellets.

For series [4], the system named is Male ddY mice. As to the kind of experiment: Suppressing activity on morphine analgesic tolerance (hot plate method, response latency). The series is classed as in vivo. The following applies: for ΔChange (Latency at each time point − Pre value) 0.5 h / ΔChange (Latency at each time point − Pre value) 1 h / ΔChange (Latency at each time point − Pre value) 2 h: single morphine administration group: morphine 6 mg/kg s.c. only on day 7.

The test system of series [5] is adenosine A2A receptor. Particulars: known from the literature (Eur. J. Pharmacol., 1994, 267(3), 335 and others); cited from earlier work.
[6] abbreviates: compound 10 mg/kg p.o. repeatedly administered alone.
Where [7] appears, read: repeated combination group: compound 10 mg/kg p.o. 30 min before each morphine 6 mg/kg s.c., 7 days.

As to `COc1ccc(/C=C/c2nc3c(c(=O)n(C)c(=O)n3C)n2C)cc1OC` [Compound (ID)], in series [1] (setting [6]), the “ΔChange (Latency at each time point − Pre value) 0.5 h” value is 2.1 ± 0.8 s, the “ΔChange (Latency at each time point − Pre value) 1 h” value came out at 2.3 ± 1.3 s, the “ΔChange (Latency at each time point − Pre value) 2 h” value was 2.5 ± 0.9 s and the “effect on the response latency” value is “the effect on the response latency was not observed”. Also, in series [1] (setting [7]), the “ΔChange (Latency at each time point − Pre value) 0.5 h” value was 14.3 ± 1.7 s, the “ΔChange (Latency at each time point − Pre value) 1 h” value worked out at 5.1 ± 1.3 s and the “ΔChange (Latency at each time point − Pre value) 2 h” value is -0.1 ± 1.4 s. The “development of analgesic tolerance (response latency)” value (“development of analgesic tolerance” for short) in series [1] (7 days) was “the development of analgesic tolerance was prevented”.
Take `COc1ccc2c3c1O[C@H]1C(=O)CC[C@@]4(O)[C@@H](C2)N(C)CC[C@]314` [oxycodone, reference compound]: the “Latency (sec) Pre value (before drug administration on last day)” value in series [2] (repeated oxycodone administration group: oxycodone 20 mg/kg p.o. twice a day, 4 days, day 4) worked out at 12.4 ± 1.1 s; in series [2] (single oxycodone administration group: distilled water twice a day 3 days, oxycodone 20 mg/kg p.o. only on day 4), 11.7 ± 1.0 s. For the same compound, the “ΔChange (Latency at each time point − Pre value) 0.5 h” value came to 5.9 ± 3.4 s in series [2] (repeated oxycodone administration group: oxycodone 20 mg/kg p.o. twice a day, 4 days, day 4, 0.5 h) and 17.5 ± 4.2 s in series [2] (single oxycodone administration group: oxycodone 20 mg/kg p.o. only on day 4, 0.5 h). The “ΔChange (Latency at each time point − Pre value) 1 h” value stood at 2.7 ± 2.3 s in series [2] (repeated oxycodone administration group: oxycodone 20 mg/kg p.o. twice a day, 4 days, day 4, 1 h) and 11.8 ± 2.0 s in series [2] (single oxycodone administration group: oxycodone 20 mg/kg p.o. only on day 4, 1 h). The “ΔChange (Latency at each time point − Pre value) 2 h” value in series [2] (repeated oxycodone administration group: oxycodone 20 mg/kg p.o. twice a day, 4 days, day 4, 2 h) is 0.1 ± 1.3 s; in series [2] (single oxycodone administration group: oxycodone 20 mg/kg p.o. only on day 4, 2 h), 6.9 ± 2.4 s. In addition, in series [2] (Test Example 7, oxycodone 20 mg/kg p.o. repeatedly for 4 days vs single oxycodone administration group), the “development of analgesic tolerance” value is “the development of analgesic tolerance was observed”.
Turning to `CN1CC[C@]23c4c5ccc(O)c4O[C@H]2[C@@H](O)C=C[C@H]3[C@H]1C5` [morphine, reference compound], the “number of fecal pellets” value in series [3] (morphine 3 mg/kg s.c., pellets collected 3 hours after administration, vs normal group) is on record as “significantly decreased”. In addition, the “ΔChange (Latency at each time point − Pre value) 0.5 h” value was 21.9 ± 1.9 s in series [4] (Table 1); 20.2 ± 1.9 ^ sec in series [4] (Table 2); 19.5 ± 2.0 s in series [4] (Table 3); 16.8 ± 2.7 s in series [4] (Table 4); 18.0 ± 2.2 s in series [4] (Table 5). Further, the “ΔChange (Latency at each time point − Pre value) 1 h” value came out at 11.8 ± 1.1 s in series [4] (Table 1); 6.3 ± 1.7 s in series [4] (Table 2); 6.4 ± 1.5 s in series [4] (Table 3); 10.4 ± 2.2 s in series [4] (Table 4); 6.8 ± 1.3 s in series [4] (Table 5). Also, the “ΔChange (Latency at each time point − Pre value) 2 h” value is 2.9 ± 0.9 s in series [4] (Table 1); 2.3 ± 0.5 s in series [4] (Table 2); -0.8 ± 1.5 s in series [4] (Table 3); 8.8 ± 0.6 s in series [4] (Table 4); 1.9 ± 1.0 s in series [4] (Table 5). Further, the “development of analgesic tolerance” value is “the development of analgesic tolerance was observed” in series [4] (Test Example 1, FIG. 1, morphine 6 mg/kg s.c. repeatedly for 7 days vs single morphine administration group); “the development of analgesic tolerance was observed” in series [4] (Test Example 3, morphine 6 mg/kg s.c. repeatedly for 7 days vs single morphine administration group); “the development of analgesic tolerance was observed” in series [4] (Test Example 4, morphine 6 mg/kg s.c. repeatedly for 7 days vs single morphine administration group); “the development of analgesic tolerance was observed” in series [4] (Test Example 5, morphine 6 mg/kg s.c. repeatedly for 7 days vs single morphine administration group); “the development of analgesic tolerance was observed” in series [4] (Test Example 6, morphine 6 mg/kg s.c. repeatedly for 7 days vs single morphine administration group).
As for `CCCn1c(=O)c2c(nc(/C=C/c3ccc(OC)c(OC)c3)n2C)n(CCC)c1=O` [Compound (IA)], in series [3] (Compound (IA) 10 mg/kg p.o. 30 min before morphine 3 mg/kg s.c., 3 hours, vs morphine administration group), the “number of fecal pellets” value was “significantly increased”. Further, the diarrhea result is listed as “diarrhea was not induced” in series [3] (combination: Compound (IA) 10 mg/kg p.o. and morphine 3 mg/kg s.c.); “diarrhea was not induced” in series [3] (only Compound (IA) 10 mg/kg p.o. administered). The “development of analgesic tolerance” value in series [4] (Test Example 1, FIG. 1, Compound (IA) 10 mg/kg p.o. 30 min before morphine 6 mg/kg s.c., repeated 7 days) is “the development of analgesic tolerance was prevented”; in series [2] (Test Example 7, Compound (IA) 10 mg/kg p.o. 30 min before oxycodone 20 mg/kg p.o., 4 days), “the development of analgesic tolerance was prevented”. For the same compound, the “effect on the response latency” value in series [4] (Test Example 1, FIG. 1, Compound (IA) 10 mg/kg p.o. repeatedly administered alone) is given as “the effect on the response latency was not observed”; in series [2] (Test Example 7, Compound (IA) 10 mg/kg p.o. repeatedly administered alone), “the effect on the response latency was not observed”. In addition, the “adenosine A2A receptor antagonistic activity” value in series [5] is “potent and selective”. Besides, the “Latency (sec) Pre value (before drug administration on last day)” value came out at 11.9 ± 1.2 s in series [2] (Compound (IA) 10 mg/kg p.o. repeatedly administered alone, day 4) and 11.9 ± 0.7 s in series [2] (repeated combination group: Compound (IA) 10 mg/kg p.o. 30 min before oxycodone 20 mg/kg p.o., 4 days, day 4). Further, the “ΔChange (Latency at each time point − Pre value) 0.5 h” value is -0.2 ± 1.7 s in series [2] (Compound (IA) 10 mg/kg p.o. repeatedly administered alone, day 4, 0.5 h) and 13.5 ± 2.6 s in series [2] (repeated combination group: Compound (IA) 10 mg/kg p.o. 30 min before oxycodone 20 mg/kg p.o., 4 days, day 4, 0.5 h). Moreover, the “ΔChange (Latency at each time point − Pre value) 1 h” value in series [2] (Compound (IA) 10 mg/kg p.o. repeatedly administered alone, day 4, 1 h) is -0.4 ± 2.2 s; in series [2] (repeated combination group: Compound (IA) 10 mg/kg p.o. 30 min before oxycodone 20 mg/kg p.o., 4 days, day 4, 1 h), 6.0 ± 1.6 s. Moreover, the “ΔChange (Latency at each time point − Pre value) 2 h” value in series [2] (Compound (IA) 10 mg/kg p.o. repeatedly administered alone, day 4, 2 h) was -0.1 ± 2.2 s; in series [2] (repeated combination group: Compound (IA) 10 mg/kg p.o. 30 min before oxycodone 20 mg/kg p.o., 4 days, day 4, 2 h), 2.2 ± 1.6 s.
Take `CCn1c(=O)c2c(nc(/C=C/c3cc(OC)c(OC)c(OC)c3)n2C)n(CC)c1=O` [Compound (IC)]: in series [1] (setting [6]), the “ΔChange (Latency at each time point − Pre value) 0.5 h” value amounted to 1.0 ± 0.7 s, the “ΔChange (Latency at each time point − Pre value) 1 h” value was 3.3 ± 1.2 s, the “ΔChange (Latency at each time point − Pre value) 2 h” value is 1.7 ± 0.7 s and the “effect on the response latency” value is given as “the effect on the response latency was not observed”. In addition, in series [1] (setting [7]), the “ΔChange (Latency at each time point − Pre value) 0.5 h” value came to 16.0 ± 1.8 s, the “ΔChange (Latency at each time point − Pre value) 1 h” value was 5.1 ± 1.7 s and the “ΔChange (Latency at each time point − Pre value) 2 h” value came to 0.9 ± 1.3 s. Besides, the “development of analgesic tolerance” value in series [1] (7 days) is listed as “the development of analgesic tolerance was prevented”.
